Data on 18 compounds can be found in patent publication US12649733B2, “3,6-diamino-pyridazin-3-yl derivatives, pharmaceutical compositions containing them and their uses as pro-apoptotic agents” (LES LABORATOIRES SERVIER, priority 2019, dated 2026).

The target of one assay is BCLXL (Homo sapiens, UniProt Q07817, V10N/V9A). Put plainly: Fluorescence polarisation assay (PUMA-based probe displacement). Note: 20 nM protein, 10 nM fluorescent probe. It counts as binding. On the technique in general: Polarisation of emitted light reports the rotation of a fluorescent probe.
The subject of a further assay is MOLT-4 cells. In words: MOLT-4 cell viability, MTT assay. It counts as cell-based. To be noted: Homo sapiens, MOLT-4, 48 h, 48 h exposure. Put shortly:
(§1)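 Viability read by MTT reduction (OD 540 nm after overnight SDS/HCl lysis) after 48 h compound treatment of cells in RPMI 1640/10% FBS. Triplicates at nine concentrations, 3.16-fold apart; four-parameter curve fitting yields IC50.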

For the next assay, the system named is H146 cells. In words: H146 cell viability, MTT assay. It counts as cell-based. To be noted: Homo sapiens, NCI-H146, 48 h, 48 h exposure. Put shortly:
as §1
Background: Formazan colour is commonly taken as a measure of viable cells.

Another assay addresses T1, Bcl-xL protein (Homo sapiens, UniProt Q07817, N197C).
T1 construct: (2-197)[N197C]; His-His (two His8 stretches joined by a Gly/Ala/Ser/Thr linker)
In words: Fluorescence quenching assay (PUMA peptide displacement). It counts as binding. Conditions: 1 nM protein, 400 nM peptide, 2 hours at 23° C.; KI determined from IC50. An excerpt: Fluorescence quenching assay measures the change in fluorescence intensity of C-terminally Cy5-labeled BCL-xL protein, His-His-(EK)-hs ? (2-197)[N197C] (UniProtKB® primary accession number Q07817-1) having an amino acid sequence (SEQ ID:03): [[…] […] […] […] […]] which is linked in C-terminal region to the amino acid X which corresponds to a cysteine labeled on the sulfur with Sulfo-Cyanine5 from Lumiprobe GmbH catalogue number 13380, upon binding of a C-terminally labeled peptide derived from PUMA (UniProtKB® primary accession number Q9BXH1) having an aminoacid sequence (SEQ ID:04): [[…]] which is linked in C-terminal region to the amino acid X′ where X′ is cysteine labeled on the sulfur with TQ5WS from AAT Bioquest catalogue number 2079.
The addition of a compound which binds competitively to the same site as the peptide will result in an increase in the fluorescence intensity of the protein due to displacement of the fluorescence quencher.
An 11-point serial dilution of each compound was prepared in DMSO the final buffer conditions were 10 mM 4-(2-hydroxyethyl)-1-piperazineethanesulfonic acid [HEPES], 150 mM NaCl, 0.05% Tween 20, pH 7.4 and 5% DMSO. The final protein concentration in the assay was 1 nM with the peptide present at 400 nM. The experiments were incubated for 2 hours at 23° C. before fluorescence intensity was measured on a Biotek SynergyNeo plate reader (Excitation 620 nm, emission 680 nm). […] The KI values were determined from the IC50 values according to Cer et al, Nucleic Acids Res, 2009, Jul. 1: 37(WebServer issue): W441-W445.

Molecules are shown by their SMILES.

Sequence of BCLXL (Q07817 with tags, fused parts or gaps V9A/V10N): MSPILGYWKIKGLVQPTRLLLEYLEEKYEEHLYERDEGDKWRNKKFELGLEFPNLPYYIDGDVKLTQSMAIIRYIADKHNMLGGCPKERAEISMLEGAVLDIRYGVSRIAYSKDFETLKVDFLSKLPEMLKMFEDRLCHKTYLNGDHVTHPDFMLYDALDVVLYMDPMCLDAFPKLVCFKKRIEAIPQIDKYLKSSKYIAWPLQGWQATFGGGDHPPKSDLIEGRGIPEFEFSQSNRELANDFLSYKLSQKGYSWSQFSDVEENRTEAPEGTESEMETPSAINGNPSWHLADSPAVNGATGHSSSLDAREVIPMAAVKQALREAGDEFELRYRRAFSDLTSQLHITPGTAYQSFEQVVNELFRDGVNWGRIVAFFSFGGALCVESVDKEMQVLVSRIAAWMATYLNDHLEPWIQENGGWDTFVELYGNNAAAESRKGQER
T1 sequence (Q07817 2-197 N197C): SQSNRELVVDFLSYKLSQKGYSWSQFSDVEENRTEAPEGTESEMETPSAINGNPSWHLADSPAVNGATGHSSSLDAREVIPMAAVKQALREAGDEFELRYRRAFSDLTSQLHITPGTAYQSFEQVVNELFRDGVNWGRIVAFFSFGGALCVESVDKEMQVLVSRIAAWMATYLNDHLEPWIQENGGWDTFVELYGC

The Ki is a dissociation constant, usually derived from enzyme kinetics or from competition with a known ligand. Usually IC50 stands for the concentration needed to halve the response being measured. Consider `Cc1cc(N(C)c2nc(C(=O)O)c(C3CCN(Cc4ccccc4)CC3)s2)nnc1Nc1nc2ccccc2s1` [Example 86, 2-({6-[(1,3-Benzothiazol-2-yl)amino]-5-methylpyridazin-3-yl}(methyl)amino)-5-(1-benzylpiperidin-4-yl)-1,3-thiazole-4-carboxylic acid], for which the Ki at BCLXL was determined as 160 nM. Moreover, the figures for the IC50 in the assay with MOLT-4 cells and with H146 cells were 14600 nM and no less than 12.4 µM, respectively.
In the same order, the values of `Cc1cc(N(C)c2nc(C(=O)O)c(C3CCN(CC(C)C)CC3)s2)nnc1Nc1nc2ccccc2s1` [Example 87, 2-({6-[(1,3-Benzothiazol-2-yl)amino]-5-methylpyridazin-3-yl}(methyl)amino)-5-[1-(2-methylpropyl)piperidin-4-yl]-1,3-thiazole-4-carboxylic acid] are 530 nM, greater than 15000 nM and greater than 15 µM.
On to `Cc1cc(N(C)c2nc(C(=O)O)c(N3CCC(COc4ccccc4)CC3)s2)nnc1Nc1nc2ccccc2s1` [Example 88, 2-({6-[(1,3-Benzothiazol-2-yl)amino]-5-methylpyridazin-3-yl}(methyl)amino)-5-[4-(phenoxymethyl)piperidin-1-yl]-1,3-thiazole-4-carboxylic acid], for which the Ki at BCLXL came to 2.8 nM. For the same compound, the IC50 in the assay on MOLT-4 cells was 1610 nM; in the assay with H146 cells, 11 µM.
Turning to `Cc1cc(N(C)c2nc(C(=O)O)c(C3CCCCC3)s2)nnc1Nc1nc2ccccc2s1` [Example 102, 2-({6-[(1,3-Benzothiazol-2-yl)amino]-5-methylpyridazin-3-yl}(methyl)amino)-5-cyclohexyl-1,3-thiazole-4-carboxylic acid], the Ki on BCLXL came out at 220 nM. Besides, the IC50 is greater than 15000 nM with MOLT-4 cells and greater than 15 µM in the assay with H146 cells.
Turning to `Cc1cc(N(C)c2nc(C(=O)O)c(C3CCCC3)s2)nnc1Nc1nc2ccccc2s1` [Example 105, 2-({6-[(1,3-Benzothiazol-2-yl)amino]-5-methylpyridazin-3-yl}(methyl)amino)-5-cyclopentyl-1,3-thiazole-4-carboxylic acid], the Ki on BCLXL worked out at 380 nM. Besides, the IC50 is greater than 15000 nM in the assay on MOLT-4 cells and greater than 15 µM with H146 cells.
The matching figures for `C=Cc1sc(N(C)c2cc(C)c(Nc3nc4ccccc4s3)nn2)nc1C(=O)O` [Example 106, 2-({6-[(1,3-benzothiazol-2-yl)amino]-5-methylpyridazin-3-yl}(methyl)amino)-5-ethenyl-1,3-thiazole-4-carboxylic acid]: 27 nM, greater than 15000 nM and greater than 15 µM.
Take `CNCCN(C)CCCCN(c1cc(C)c(Nc2nc3ccccc3s2)nn1)c1nc(C(=O)O)c(CCCOc2ccc(C#CCN(C)C)cc2F)s1` [Example 178, 2-[[6-(1,3-Benzothiazol-2-ylamino)-5-methyl-pyridazin-3-yl]-[4-[methyl-[2-(methylamino)ethyl]amino]butyl]amino]-5-[3-[4-[3-(dimethylamino)prop-1-ynyl]-2-fluoro-phenoxy]propyl]thiazole-4-carboxylic acid]: the Ki at Bcl-xL protein amounted to 7.4 pM.
Same read-out and setting: next, `Cc1cc(N(CCCCNCCN2CCCCC2)c2nc(C(=O)O)c(CCCOc3ccc(C#CCN(C)C)cc3F)s2)nnc1Nc1nc2ccccc2s1` [Example 179, 2-[[6-(1,3-Benzothiazol-2-ylamino)-5-methyl-pyridazin-3-yl]-[4-[2-(1-piperidyl)ethylamino]butyl]amino]-5-[3-[4-[3-(dimethylamino)prop-1-ynyl]-2-fluoro-phenoxy]propyl]thiazole-4-carboxylic acid]: 6.8 pM; `Cc1cc(N(CCCCNCCN2CCOCC2)c2nc(C(=O)O)c(CCCOc3ccc(C#CCN(C)C)cc3F)s2)nnc1Nc1nc2ccccc2s1` [Example 180, 2-[[6-(1,3-Benzothiazol-2-ylamino)-5-methyl-pyridazin-3-yl]-[4-(2-morpholinoethylamino)butyl]amino]-5-[3-[4-[3-(dimethylamino)prop-1-ynyl]-2-fluoro-phenoxy]propyl]thiazole-4-carboxylic acid]: 5.2 pM.
As for `Cc1cc(N(CCCCNC2CCN(C)CC2)c2nc(C(=O)O)c(CCCOc3ccc(C#CCN(C)C)cc3F)s2)nnc1Nc1nc2ccccc2s1` [Example 181, 2-[[6-(1,3-Benzothiazol-2-ylamino)-5-methyl-pyridazin-3-yl]-[4-[(1-methyl-4-piperidyl)amino]butyl]amino]-5-[3-[4-[3-(dimethylamino)prop-1-ynyl]-2-fluoro-phenoxy]propyl]thiazole-4-carboxylic acid], at Bcl-xL protein, the Ki came to 4.3 pM.
The same measure, in the same setting: the figure for `CNCC#Cc1ccc(OCCCc2sc(N(C)c3cc(C(F)(F)F)c(Nc4nc5ccccc5s4)nn3)nc2C(=O)O)c(F)c1` [Example 209, 2-[[6-(1,3-Benzothiazol-2-ylamino)-5-(trifluoromethyl)pyridazin-3-yl]-methyl-amino]-5-[3-[2-fluoro-4-[3-(methylamino)prop-1-ynyl]phenoxy]propyl]thiazole-4-carboxylic acid] is 23 pM.
In turn, `Cc1cc(N(CCCCC[N+](C)(C)CCO)c2nc(C(=O)[O-])c(CCCOc3ccc(C#CCN(C)C)cc3F)s2)nnc1Nc1nc2ccccc2s1` [Example 226, 2-[[6-(1,3-Benzothiazol-2-ylamino)-5-methyl-pyridazin-3-yl]-[5-[2-hydroxyethyl(dimethyl)ammonio]pentyl]amino]-5-[3-[4-[3-(dimethylamino)prop-1-ynyl]-2-fluoro-phenoxy]propyl]thiazole-4-carboxylate] had an IC50 in the assay with MOLT-4 cells of 752 nM. Moreover, at Bcl-xL protein, the inhibition constant (Ki) worked out at 5.3 pM.
For the compound `Cc1cc(N(CCCCC[N+](C)(C)CC(=O)O)c2nc(C(=O)[O-])c(CCCOc3ccc(C#CCN(C)C)cc3F)s2)nnc1Nc1nc2ccccc2s1` [Example 227, 2-[[6-(1,3-Benzothiazol-2-ylamino)-5-methyl-pyridazin-3-yl]-[5-[carboxymethyl(dimethyl)ammonio]pentyl]amino]-5-[3-[4-[3-(dimethylamino)prop-1-ynyl]-2-fluoro-phenoxy]propyl]thiazole-4-carboxylate], in the assay with MOLT-4 cells, the IC50 came out at 802 nM. The Ki at Bcl-xL protein is 3.5 pM.
In the case of `CNCC#Cc1ccc(OCCCc2sc(N(CCCC[N+](C)(C)C)c3cc(C)c(Nc4nc5ccccc5s4)nn3)nc2C(=O)O)c(F)c1` [Example 232, 2-[[6-(1,3-Benzothiazol-2-ylamino)-5-methyl-pyridazin-3-yl]-[4-(trimethylammonio)butyl]amino]-5-[3-[2-fluoro-4-[3-(methylamino)prop-1-ynyl]phenoxy]propyl]thiazole-4-carboxylate], at Bcl-xL protein, the Ki was found to be 1.7 pM.
In turn, `CNCC#Cc1ccc(OCCCc2sc(N(CCCP(=O)(O)O)c3cc(C)c(Nc4nc5ccccc5s4)nn3)nc2C(=O)O)c(F)c1` [Example 237, 2-[[6-(1,3-Benzothiazol-2-ylamino)-5-methyl-pyridazin-3-yl]-(3-phosphonopropyl)amino]-5-[3-[2-fluoro-4-[3-(methylamino)prop-1-ynyl]phenoxy]propyl]thiazole-4-carboxylic acid] yielded an IC50 in the assay with MOLT-4 cells of 750 nM. Also, the Ki at Bcl-xL protein stood at 1.8 pM.
The compound `Cc1cc(N(CCCC(=O)O)c2nc(C(=O)O)c(CCCOc3ccc(C#CCN(C)C)cc3F)s2)nnc1Nc1nc2ccccc2s1` [Example 238, 2-({6-[(1,3-Benzothiazol-2-yl)amino]-5-methylpyridazin-3-yl}(3-carboxypropyl)amino)-5-(3-{4-[3-(dimethylamino)prop-1-yn-1-yl]-2-fluorophenoxy}propyl)-1,3-thiazole-4-carboxylic acid] showed an IC50 in the assay with MOLT-4 cells of 149 nM. Also, the Ki on Bcl-xL protein was found to be 4.5 pM.
In the assay with MOLT-4 cells, `Cc1cc(N(CCCP(=O)(O)O)c2nc(C(=O)O)c(CCCOc3ccc(C#CCN(C)C)cc3F)s2)nnc1Nc1nc2ccccc2s1` [Example 239, 2-({6-[(1,3-Benzothiazol-2-yl)amino]-5-methylpyridazin-3-yl}(3-phosphonopropyl)amino)-5-(3-{4-[3-(dimethylamino)prop-1-yn-1-yl]-2-fluorophenoxy}propyl)-1,3-thiazole-4-carboxylic acid] displayed an IC50 of 314 nM. For the same compound, the Ki at Bcl-xL protein stood at 2.7 pM.
The matching figures for `Cc1cc(N(CCCS(=O)(=O)O)c2nc(C(=O)O)c(CCCOc3ccc(C#CCN(C)C)cc3F)s2)nnc1Nc1nc2ccccc2s1` [Example 240, 2-({6-[(1,3-Benzothiazol-2-yl)amino]-5-methylpyridazin-3-yl}(3-sulfopropyl)amino)-5-(3-{4-[3-(dimethylamino)prop-1-yn-1-yl]-2-fluorophenoxy}propyl)-1,3-thiazole-4-carboxylic acid]: 1320 nM and 7.3 pM.
